System: gp100170-190-specific T cell clone (HLA-DRβ1*0701 restricted)
Experiment: IFN-γ release by gp100-specific CD4+ T cell clones co-cultured with EBV-B cells pulsed with peptide or protein (ELISA)
Type: cell-based, human
Conditions: for Gp100 Peptide Identification (IFN-γ; pg/ml) 10 μM: peptide pulsed at 10 μM on EBV-B cells; for Gp100 Peptide Identification (IFN-γ; pg/ml) 10 μM / Gp100 Peptide Identification (IFN-γ; pg/ml) 50 μM: 24 h co-culture with T cell clone; for Gp100 Peptide Identification (IFN-γ; pg/ml) 50 μM: peptide pulsed at 50 μM on EBV-B cells
Source text: The reactivity of nine representative positive clones is presented in FIG. 1A along with 4 representative negative wells (neg1 to neg4). Eight of the 46 positive clones were expanded and further characterized. […] To further characterize the reactivity, some of the clones were co-cultured with autologous B cells pulsed with a bacterially produced gp100 protein. […] In order to identify the MHC restriction element, antibodies known to bind and block the presentation by defined MHC molecules were used. Recognition by clones 6 and 8 of target cells pulsed with the gp100 protein was inhibited when using blocking antibodies against MHC class II and HLA-DR but the recognition was unchanged when using a blocking MHC class I antibody. […] By using HLA-DR matched B cells, the restriction element was identified as HLA-DRβ1*0701 (patient A is HLA-DRβ1*0701 and *1601; FIG. 2).
To find the epitope recognized, an overlapping gp100 peptide library consisting of 68 peptides of 17 or 21 residues overlapping by 10-12 amino acids was prepared. The autologous EBV-B cells were pulsed with the peptide library and used as targets in a T cell recognition assay using three different T cell clones.
Finally, several peptides were synthesized in order to define an optimal HLA-DRβ1*0701 epitope (Rammensee, H. G. Immunogenetics 41:178-228, 1995; Chicz et al. J. Exp. Med. 178:27-47, 1993). […] Finally, substitutions were made at position 5 of the gp100174-394 peptide presuming that this is position 1 according to the defined motif for HLA-DRβ1*0701 (SYFPEITHI web site, http://syfpeithi.de/). However, none of the peptides were better recognized when pulsed at 10 μM or 1 μM compared to the wild type gp100174-394 peptide.
The gp100 peptide library consisted of 68 peptides of 17 to 21 residues overlapping by 10 to 12 amino acids. The peptides were synthesized by solid phase FMOC methodology as previously described (Parkhurst et al. J. Immunol. 157:2539-2548, 1996). A control peptide derived from the Ig kappa chain known to bind to HLA-DRβ1*0701 was also prepared (Chicz et al. J. Exp. Med. 178:27-47, 1993). Recombinant gp100 protein was made and purified as previously described Touloukian et al. J. Immunol. 164:3535-3542, 2000). Recombinant NY-ESO-1 protein is another tumor antigen (Chen, Y T and L J Old. Cancer J. Sci. Am. 5:16-17, 1999) used as negative control and was made and purified as previously described (Zeng et al. J. Immunol. 165:1153-1159, 2000). EBV-B cells (1×10^5) were pulsed with gp100-purified protein or peptides for 18 hours in 96 well flat-bottom plates and T cells were added directly to the pulsed-B cells for a 24 hours recognition assay. In some experiments, EBV-B cells (5×10^5) were pulsed in 48 well plates for 18 hours and cells were washed twice with PBS. T cells were then co-cultured with the pulsed EBV-B cells in 96 well flat-bottom plates for 24 hours. Supernatants were harvested and human IFN-γ was assayed by ELISA using a commercially available kit (R&D Inc.).
Fifty to one hundred thousand responder cells and 4×10^4-10^5 stimulator cells were mixed in 300 ul of AIM-V medium containing […] IL-2 per well in a 96 flat-well microplate. Target cells (1×10^5) were incubated with 1×10^5 specific T cells in 250 μl of T cell medium (AIM-V-based medium) in 96 well flat-bottom plates. Supernatants were harvested after 24 h and human IFN-γ was assayed by ELISA using a commercially available kit (R&D, Inc.; Minneapolis, Minn.).

Sequence	Gp100 Peptide Identification (IFN-γ; pg/ml) 10 μM	Gp100 Peptide Identification (IFN-γ; pg/ml) 50 μM	recognition in overlapping gp100 peptide library screen (68 peptides, all at 100 μM, autologous EBV-B cells, one of three T cell clones, FIG. 3A)	peptide concentration below which recognition was undetectable (titration) (gp100170-190-specific T cell clone, peptide pulsed on EBV-B cells, FIG. 3B)
SIGTGRAMLGTHTMEVTVYHR [SEQ ID NO:13]	12,210 pg/ml	>25,000 pg/ml		
SGLSIGTGRAMLGTHTMEVTV [SEQ ID NO:14]	1,655 pg/ml	4,200 pg/ml		
TGRAMLGTHTMEVTVYHR [SEQ ID NO:6]	11,100 pg/ml	>25,000 pg/ml		
TGRAYLGTHTMEVTVYHRRGS [SEQ ID NO:19]	11,640 pg/ml	>25,000 pg/ml		
GTGRAMLGTHTMEVTVYHRRG [SEQ ID NO:9]	22,910 pg/ml	>25,000 pg/ml		
TGRAMLGTHTMEVTVYHRRGS [SEQ ID NO:5]	17,140 pg/ml	>25,000 pg/ml		
IGTGRAMLGTHTMEVTVYHRR [SEQ ID NO:4]	17,050 pg/ml	>25,000 pg/ml		
TGRAMLGTHTMEVTVYHRRG [SEQ ID NO:8]	17,910 pg/ml	>25,000 pg/ml		
TGRALLGTHTMEVTVYHRRGS [SEQ ID NO:18]	23,140 pg/ml	>25,000 pg/ml		
IGTGRAMLGTHTMEVTVYH [SEQ ID NO:11]	17,590 pg/ml	>25,000 pg/ml		
TGRAFLGTHTMEVTVYHRRGS [SEQ ID NO:17]	19,390 pg/ml	>25,000 pg/ml		
GTGRAMLGTHTMEVTVYH [SEQ ID NO:10]	18,770 pg/ml	>25,000 pg/ml		
PVSGLSIGTGRAMLGTHTMEV [SEQ ID NO:20]	<8 pg/mL	19 pg/mL		
TGRAMLGTHTMEVTVYH [SEQ ID NO:2]	14,010 pg/ml	>25,000 pg/ml		
TGRAMLGTHTMEVTVYHRR [SEQ ID NO:7]	11,550 pg/ml	>25,000 pg/ml		
SIGTGRAMLGTHTMEVTVYH [SEQ ID NO:12]	20,710 pg/ml	>25,000 pg/ml		
MLGTHTMEVTVYHRRGSRSYV [SEQ ID NO:16]	52 pg/mL	5,940 pg/ml		
RAMLGTHTMEVTVYHRRGSRS [SEQ ID NO:15]	912 pg/mL	15,230 pg/ml		
LSIGTGRAMLGTHTMEVTVYH [SEQ ID NO:3]	21,000 pg/ml	>25,000 pg/ml	specifically recognized	4 to 10 µM

Reference: US7749967B2, “Peptides of a melanoma antigen and their use in diagnostic, prophylactic, and therapeutic methods” (The United States of America as represented by the …, priority 2001, dated 2010)
